Measured values as given in patent US20110152252A1 (priority 2007, published 2011).
Like-named read-outs stand apart in the source and are kept apart here.

Assays:
[1] = test system: Gb3-expressing HT-29 cells; test: cells; format: cell-based
[2] = molecular target: mitochondrial peripheral benzodiazepine receptor, mPBR (Homo sapiens, UniProt P30536); details: cited from earlier work
[3] = test system: periampular tumors in APC^1638N mice; details: mouse, in vivo

Chain of mitochondrial peripheral benzodiazepine receptor, mPBR (P30536 whole entry): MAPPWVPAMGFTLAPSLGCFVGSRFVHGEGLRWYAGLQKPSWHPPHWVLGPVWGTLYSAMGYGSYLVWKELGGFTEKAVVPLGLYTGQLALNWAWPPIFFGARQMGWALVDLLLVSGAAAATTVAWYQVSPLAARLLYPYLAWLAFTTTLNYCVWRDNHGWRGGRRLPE

Molecule SN-38 has an IC50 ([1]; read-out: IC50) of 30 nM.
In the case of RO5-4864, the Ki [2] is given as 23 nM.
For `CCc1c2c(nc3ccc(OC(=O)N4CCC(N5CCCCC5)CC4)cc13)-c1cc3c(c(=O)n1C2)COC(=O)[C@]3(O)CC` [CPT11], the IC50 ([1]; Homo sapiens, HT-29) was 70000 nM, the “inflammatory reaction in the periampular region (pathology)” value [3] was “weak and very moderate inflammatory reaction” and the “tumor growth / development of periampular tumors” value [3] was “periampular tumors developed”. For the same molecule, the “tumor lesions detected (pathology)” value [3] was “high-grade adenomas and carcinomas could be detected”.
